{"source": "patent US6696303B2", "about": "“Identifying substances using cells that express p75NTR” (Trustees of Boston University, priority 1996, dated 2004)", "key": {"[1]": {"system": "Bax", "test": "Bax level in melanocytes by Western blot with anti-Bax antibody", "type": "cell-based, human", "conditions": "for increased Bax level as compared to the 40-1 peptide: 25 μM, four days; for Bax induction: 25 uM, within 4 days, vs 40-1 control fragment or irrelevant protein", "procedure": "To investigate the mechanism of β-amyloid-mediated melanocyte death, Bax levels in melanocytes treated with 25 uM of 1-40 or 25-35 β-amyloid peptides was examined. Within 4 days of treatment, Bax was induced 3 fold in melanocytes stimulated either with the β-amyloid 1-40 or 25-35 fragments as compared to melanocytes treated with the 40-1 control fragment or an irrelevant HPLC purified protein of similar size.\nMelanocytes were maintained as above. Four days after addition of 25 μM of β-amyloid fragments 1-40, 40-1 or 25-35; or 25 μM of HPLC-purified bovine corticotropin releasing factor (CRF) (Bachem Calif.) (MW 4.7 kD) as an additional negative control, cells were extracted in RIPA buffer (50 mM Tris-HCl, 0.15 M NaCl, 0.5% sodium deoxycholate, 1% TRITON®X-100) in the presence of 1 μ/ml aprotinin and 75 μg/ml phenylmethylsulfonyl fluoride (PMSF), sonicated for 1-3 seconds and centrifuged. 40 μg of protein per lane were separated on 12% SDS/PAGE and blotted onto nitrocellulose paper (overnight, 25V). To verify equal loading a duplicate 13% SDS/PAGE was performed and stained with Coomasie Blue R250 stain. Blots were incubated with anti-Bax antibody (1:1000 dilution) (primary antibody), followed by horseradish peroxidase-conjugated goat anti-rabbit IgG (secondary antibody) (1:500 dilution) (Bio-Rad Laboratories, Hercules, Calif.). Bound antibodies were detected using enhanced chemiluminescence kit (Amersham Corp.). Autoradiograms were scanned into a Macintosh II is computer using the Of to TM program (Light source Computer Images, Inc.). Scan analysis was performed with manual definition of bands using Scan Analysis TM 68000 program (Biosoft, Cambridge, UK)."}, "[2]": {"system": "p75^NTR", "test": "UV irradiated melanocytes treated with anti p75NTR antisense oligonucleotides", "type": "cell-based", "procedure": "Melanocytes were UV irradiated with 25 mJ/cm^2 and then supplemented either with 10 μM anti p75^NTR anti sense phosphothioate oligonucleotides ([…] SEQ ID NO.: 5) directed against the 3′ end of the p75^NTR coding region, or the same concentration of sense oligonucleotides as a negative control.\nImmunohistochemical analysis confirmed that p75^NTR was not expressed in cells treated with anti-p75^NTR anti-sense oligonucleotides, but was expressed in the sense treated cells. Within 24 hours after irradiation; the following was observed the following were observed: […]"}, "[3]": {"system": "melanocytes", "test": "NGF supplementation of β-amyloid-treated melanocytes", "type": "cell-based, human", "conditions": "for percent of live cells (spread): 48 hours", "procedure": "Melanocytes were maintained as above in hormone supplemented medium lacking hydrocortisone. Cells were supplemented with 25 μM of β-amyloid 1-40 in the presence of 50 ng/ml NGS or diluent.\nPhotographs of representative fields were obtained and the percent of the live cells (spread) was determined 48 hours after addition of β-amyloid and NFG or β-amyloid and diluent.\nAt least 400 cells were counted in each condition."}, "[4]": {"biological_target": "T1, p75^NTR (Homo sapiens, UniProt P08138)", "T1 construct": "expressed in transfected cells; host or cells: NIH 3T3 fibroblasts, permanently transfected (p75NTR-NIH 3T3 cells)", "T1 sequence (P08138 29-427)": "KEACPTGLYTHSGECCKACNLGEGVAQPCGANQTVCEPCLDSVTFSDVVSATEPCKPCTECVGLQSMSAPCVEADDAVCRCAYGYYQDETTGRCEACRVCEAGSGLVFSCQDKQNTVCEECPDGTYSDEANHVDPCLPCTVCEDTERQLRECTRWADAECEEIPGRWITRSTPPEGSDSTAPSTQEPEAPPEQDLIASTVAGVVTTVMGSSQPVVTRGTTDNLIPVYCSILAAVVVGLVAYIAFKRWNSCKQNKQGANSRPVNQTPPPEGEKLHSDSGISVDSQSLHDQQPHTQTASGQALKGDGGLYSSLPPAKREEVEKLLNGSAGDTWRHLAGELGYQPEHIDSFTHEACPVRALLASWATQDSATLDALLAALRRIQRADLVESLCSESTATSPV", "test": "competition for 125I labeled β-amyloid 1-40 binding on p75NTR-NIH 3T3 cells", "conditions": "NGF 100 ng/ml; 2 hours at 4° C.", "from_the_text": "After rinsing in PBS, cells were lysed in 1N NaOH and equal amounts of protein from cell lysates were subject to counting.\n[…] (SEQ ID NO: 4). Lysates from 1.5×10^5 cells were subjected to counting."}, "[5]": {"biological_target": "T1, p75^NTR", "test": "receptor affinity for p75NTR", "type": "binding"}, "[6]": {"biological_target": "T1, p75^NTR", "conditions": "lysine at position 34 replaced by alanine; vs NGF; cited from earlier work"}, "[7]": {"system": "normal human melanocytes", "test": "melanocyte cell yield and morphology after β-amyloid supplementation", "type": "cell-based", "procedure": "To determine the effect of β-amyloid on normal human melanocytes, cultures were supplemented with increasing concentrations (0.025-50 uM) of HPLC-purified β-amyloid fragment corresponding to amino acids 1-40. A peptide containing the first 40 amino acids synthesized in reverse order (40-1) was used as a negative control.\nMelanocytes were maintained in serum free Medium 199 (Gibco BRL Gaithersburg, Md.) supplemented with epidermal growth factor (10 ng/ml) (Collaborative Research), insulin (10 μg/ml) (Sigma), triiodothyronine (10^−9 M) (Collaborative Research), transferrin (10 μg/ml) (Sigma), hydrocortisone (1.4×10^−6 M) (Calbiochem), cholera toxin (10^−9 M) (Calbiochem) and basic fibroblast growth factor (basic FGF) (10 ng/ml) (Collaborative Research). Two days after plating cells were supplemented with increasing concentrations of β-amyloid 1-40 or the control peptide 40-1 (0-50 μM) (Bachem Calif., Torrance, Calif.)."}, "[8]": {"system": "p75^NTR 3T3 cells", "test": "cell yield of p75NTR 3T3 cells with β-amyloid and cyclic peptide", "type": "cell-based", "procedure": "p75^NTR 3T3 cells were maintained in serum free medium supplemented with 200 nM β-amyloid 1-40, 200 nM cyclic peptide […], (SEQ ID NO: 4) 20 nM β-amyloid 1-40 and 200 nM cyclic peptide or diluent alone."}, "[9]": {"biological_target": "T1, p75^NTR", "test": "cross linking of 125I β-amyloid 1-40 and immunoprecipitation with anti p75NTR antibodies", "type": "binding", "conditions": "p75NTR-NIH 3T3 cells, disuccinimidyl suberate cross linking", "procedure": "p75^NTR-NIH 3T3 cells were maintain in DMEM supplemented with 10% FBS in the presence of penicillin (45 ng/ml), streptomycin (68 ng/ml), and hygromycin B (17.5 ng/ml). At 80% confluence cells were lifted from the dish with EDTA and incubated in suspension with 5 uCi ^125I labeled β-amyloid 1-40 at 4° C. for 1 hour in DMEM. After incubation, 1 mM of disuccinimidyl suberate was added for 30 minutes. Following centrifugation cells were lysed with RIPA buffer (50 mM Tris HCl, pH 8.0, 0.15 M NaCl 0.5% sodium deoxycholate 4, 5 mM MgC2, 1% TRITON®X-100, 1 mM phenylmethylsulfonylfluoride, and 1 μg/ml aprotinin), sonicated for 1-3 seconds and immunoprecipitated with anti p75^NTR antibodies (mouse monoclonal IgGl, Cedarlane Laboratories Ltd., Ontario, Canada) or mouse IgG as control for 16 hours at 4° C. in the presence of 15 ul of protein G plus protein A agarose and 1M NaCl adjusted to pH 8.0. After several washes with 20 mM Tris HCl, pH 8.0, 1M NaCl, 5mM MgCl2, 0.2% TRITON®X-100 and 1 mM PMSF, immunoprecipitates were separated over 8% PAGE and subjected to autoradiography. A band of appropriate molecular weight was present only in lysates immunoprecipitated with anti p75^NTR antibodies and not lysates immunoprecipitated with irrelevant mouse IgG."}, "[10]": {"conditions": "NGF supplementation, preliminary data"}, "[11]": {"conditions": "≧25 μM, compared to control cultures"}}, "data": [{"substance": "25-35: β-amyloid peptide fragment of amino acid residues 25-35 (GSNKGAIIGLM)", "values": [{"measurement": "increased Bax level as compared to the 40-1 peptide", "setting": "[1]", "result": 160, "unit": "%"}, {"measurement": "Bax induction", "setting": "[1]", "result": 3, "unit": "fold"}]}, {"substance": "CTCCCACTCGTCATTCGAC (all phosphorothioate, sugars by position and methylation of C not given here) [anti-sense oligonucleotides, anti p75NTR anti sense phosphothioate oligonucleotides directed against the 3′ end of the p75NTR coding region]", "values": [{"measurement": "p75NTR expression (immunohistochemical analysis)", "setting": "[2]; 10 μM oligonucleotide, melanocytes UV irradiated with 25 mJ/cm^2", "result": "not expressed"}, {"measurement": "appearance of cells within 24 hours after irradiation", "setting": "[2]; diluent instead of NGF", "result": "appear as healthy as cells provided NGF lacking p75^NTR"}, {"measurement": "appearance of cells within 24 hours after irradiation", "setting": "[2]; with 50 ng/ml NGF", "result": "do not appear as healthy or numerous as cells expressing both receptors in the presence of NGF"}]}, {"substance": "NGF: Nerve growth factor, physiologic ligand for p75NTR", "values": [{"measurement": "percent of live cells (spread)", "setting": "[3]; 25 μM β-amyloid 1-40 and 50 ng/ml NGF", "result": "96±1.4", "unit": "%"}, {"measurement": "cell yields of β-amyloid-supplemented melanocytes", "setting": "[3]; NGF added, within 3-5 days", "result": "enhanced cell yields"}, {"measurement": "Bcl-2 levels", "setting": "[3]; [10]", "result": "increases Bcl-2 levels"}, {"measurement": "β-amyloid-induced Bax upregulation", "setting": "[3]; [10]", "result": "decreases the β-amyloid-induced Bax upregulation"}, {"measurement": "maximum inhibition of 125I labeled β-amyloid binding", "setting": "[4]", "result": 38, "unit": "%"}, {"measurement": "appearance of cells within 24 hours after irradiation", "setting": "[2]; with 50 ng/ml NGF", "result": "appear healthy"}, {"measurement": "higher receptor affinity than β-amyloid", "setting": "[5]", "result": "2-3 fold"}]}, {"substance": "mutant NGF: NGF in which lysine (K) at position 34 is replaced by alanine (A)", "values": [{"measurement": "lower affinity of binding to p75NTR", "setting": "[6]", "result": 50, "unit": "%"}]}, {"substance": "β-amyloid 1-40: HPLC-purified β-amyloid fragment corresponding to amino acids 1-40", "values": [{"measurement": "effect on cell yield", "setting": "[7]; 0-50 μM, three to five days after addition", "result": "dose dependent decrease of cell yield"}, {"measurement": "decrease in cell yield", "setting": "[7]; 25-30 uM, compared to cell yield before β-amyloid addition (100%)", "result": "59%±17%"}, {"measurement": "dendrite outgrowth", "setting": "[7]; low concentrations (≦1 μM)", "result": "extensive outgrowth of dendrites"}, {"measurement": "decrease of melanocyte yield", "setting": "[7]; within 3-5 days, total of four experiments", "result": "> 50", "unit": "%"}, {"measurement": "proportion of apoptotic cells", "setting": "[7]; [11]", "result": "significantly increases the proportion of apoptotic cells"}, {"measurement": "increased Bax level as compared to the 40-1 peptide", "setting": "[1]", "result": 270, "unit": "%"}, {"measurement": "Bax induction", "setting": "[1]", "result": 3, "unit": "fold"}, {"measurement": "upregulation of Bax protein expression", "setting": "[1]; [11]", "result": "approximately three fold"}, {"measurement": "percent of live cells (spread)", "setting": "[3]; 25 μM β-amyloid 1-40 and diluent", "result": "77±8.5", "unit": "%"}, {"measurement": "cell yield compared to all other cultures", "setting": "[8]; 200 nM, serum free medium, up to 120 hours", "result": "prominent decrease of cell yield"}, {"measurement": "reduction of cell yields", "setting": "[8]; β-amyloid 200 nM", "result": "~60", "unit": "%"}, {"measurement": "binding to p75NTR (autoradiogram of immunoprecipitates)", "setting": "[9]", "result": "protein band of 75-80 kD in size only in lysates immunoprecipitated with anti p75^NTR antibodies"}]}]}
